In EP0173480A2, “The antiviral use of phyllanthostatins” (priority 1984, dated 1986):
“Also recorded” adds a separate entry of the source. Read-outs that look alike come from different tables or passages of the source.

What was measured:
[1] = test system: herpes simplex virus type 1 (HSV-1, McIntyre); test: Inhibition of virus replication, virus yield by plaque method; type: cell-based; design: ED90 McIntyre: unit not given here; details: for ED90 McIntyre: HSV-1 in Vero cells, drug concentration reducing virus titers by 90%, unit only in b38; for HSV-1 virus yield: Vero cells
[2] = test system: herpes simplex virus type 2 (HSV-2, MS); test: as above; type: cell-based; details: for ED90 MS: HSV-2 in Vero cells, drug concentration reducing virus titers by 90%
[3] = test system: VSV (vesicular stomatitis virus); type: cell-based; design: ED90 VSV: unit not given beside the values; details: Vero cells
coxsackie A21 = type: cell-based; design: ED90 Col: unit not given beside the values; details: for coxsackie A21 virus yield: ML cells
[4] = test system: coxsackie B3 virus (Nancy Strain); test: Inhibition of virus replication, virus yield in Vero cells; type: cell-based
[5] = test system: Herpes Simplex virus type 2 (HSV-2, strain 35D); test: Genital HSV-2 infection of female mice, intravaginal treatment, survival; type: in vivo; details: for mice survived (of 14): study of Table 3; for %S (percent survivors) / MDD (mean day of death): N 14; for protection of mice from lethal genital HSV-2 infection, summary in words: intravaginally from one hour after inoculation, 3 times daily
PR-8 = details: 50 pg of test compound (so in the source); for zone of cytotoxicity: first figure of the cell; for zone of antiviral activity (viral plaque inhibition): second figure of the cell
E.R. = details: 50 pg of test compound (so in the source); for zone of cytotoxicity: first figure of the cell; for zone of antiviral activity (viral plaque inhibition): second figure of the cell
Vacc. = details: 50 pg of test compound (so in the source); for zone of cytotoxicity: first figure of the cell; for zone of antiviral activity (viral plaque inhibition): second figure of the cell
Vero cells = details: monkey
Coe = test: Cell culture antiviral activity, agar-well zones of cytotoxicity / plaque inhibition; details: second figure of the cell, 50 pg of test compound (so in the source)
HA-1 = test: as above; details: 50 pg of test compound (so in the source); for zone of cytotoxicity: first figure of the cell; for zone of antiviral activity (viral plaque inhibition): second figure of the cell
HSV-1 = test: as above; details: second figure of the cell, 50 pg of test compound (so in the source)
HSV-2 = test: as above; details: second figure of the cell, 50 pg of test compound (so in the source)
[6] = test system: Herpes Simplex virus type 2 (HSV-2, strain 35D); test: Genital HSV-2 infection of female mice, virus titers in vaginal secretions; type: in vivo; details: for Mean virus titer in swabs of mice which shed virus / Nv/Nt, swabs with virus/total swabs: 8.0 x 10^4 PFU;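 on Mean virus titer in swabs of mice which shed virus: titer expressed as log PFU per ml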
[7] = 8.0 x 10^3 PFU/0.1 ml, mg/ml cell empty (1 mg/ml in upper section)
[8] = 8.0 x 10^4 PFU/0.1 ml, 1 mg/ml intravaginally
[9] = higher drug concentrations (5 and 50 µg/ml) compared with 0.5
[10] = second study, 8.0 x 10^4 PFU in 0.1 ml, 0.5 mg/ml
[11] = day 1 after HSV-2 inoc., 0.5 mg/ml
[12] = day 1 after HSV-2 inoc., 1 mg/ml
[13] = day 2 after HSV-2 inoc., 0.5 mg/ml
[14] = day 2 after HSV-2 inoc., 1 mg/ml
[15] = day 3 after HSV-2 inoc., 0.5 mg/ml
[16] = day 3 after HSV-2 inoc., 1 mg/ml
[17] = day 4 after HSV-2 inoc., 0.5 mg/ml
[18] = day 4 after HSV-2 inoc., 1 mg/ml
[19] = day 7 after HSV-2 inoc., 0.5 mg/ml
[20] = day 7 after HSV-2 inoc., 1 mg/ml

## COC(=O)C1CCC2C(C1)OC1(CC(OC(=O)/C=C/c3ccccc3)C(C)CO1)C21CO1 (stereo not shown) [Phyllanthocin]
[1]
  ED90 McIntyre: 7.1380
[1]; listed as phyllanthocin
  ED90 McIntyre: 7.14
[1]; 5 µg/ml
  HSV-1 virus yield: only modestly inhibitory; also recorded: reductions in yields
[1]; 50 µg/ml
  HSV-1 virus yield: reduced yields of all viruses; also recorded: reduction in titers of all viruses
[2]
  ED90 MS: 7.99 µg per ml
[2]; 1440 min
  ED90 MS: 7.9939 µg per ml
[2]; Vero cells, 5 µg per ml
  HSV-2 yields reduced by: greater than 1 log
[2]; Vero cells, 5 µg/ml
  HSV-2 virus yield: reductions in yields; also recorded: inhibitory
[2]; Vero cells, 50 µg/ml
  HSV-2 virus yield: reduced yields of all viruses; also recorded: reduction in titers of all viruses
[3]; 5 µg/ml (below 5 µg per ml)
  VSV virus yield: non-inhibitory; also recorded: not affected; also recorded: not for VSV or Coxsackie A-21
[3]; 50 µg/ml
  VSV virus yield: reduced yields of all viruses; also recorded: reduction in titers of all viruses
[3]; reduces virus yield by 90%, unit not given, NS - not significant
  ED90 VSV: 8.668
Coxsackie A21; 5 µg/ml (below 5 µg per ml)
  coxsackie A21 virus yield: non-inhibitory; also recorded: did not reduce the yields; also recorded: not affected; also recorded: not for VSV or Coxsackie A-21
Coxsackie A21; 50 µg/ml
  coxsackie A21 virus yield: reduced yields of all viruses; also recorded: reduction in titers of all viruses
Coxsackie A21; […], unit not given, NS - not significant
  ED90 Col: 61.7506
[4]; 5 µg per ml
  coxsackie B3 virus yield: inhibitory for coxsackie B3 replication
[5]; 8.0 x 10^3 PFU in 0.1 ml
  mice survived (of 14): four
[5]; [7]
  %S (percent survivors): 29%
  MDD (mean day of death): 8.5 days
[5]; 8.0 x 10^4 PFU in 0.1 ml
  mice survived (of 14): did not protect mice from lethal infection
[5]; [8]
  %S (percent survivors): 14%
  MDD (mean day of death): 8.0 days
[5]
  protection of mice from lethal genital HSV-2 infection, summary in words: devoid of antiviral activity
PR-8
  zone of cytotoxicity: 2 (2 - 20-30 mm)
  zone of antiviral activity (viral plaque inhibition): 0
E.R.
  zone of cytotoxicity: 0/0
  zone of antiviral activity (viral plaque inhibition): 0/0
Vacc.
  zone of cytotoxicity: 0
  zone of antiviral activity (viral plaque inhibition): 4
Vero cells
  times less cytotoxic than phyllanthoside or phyllanthostatin I: 2-5
Vero cells; vero cells, 72 h
  ID50 Vero 72 hrs.: 5.91 mg per ml
Coe
  zone of antiviral activity (viral plaque inhibition): 0/0
HA-1
  zone of cytotoxicity: 0/0
  zone of antiviral activity (viral plaque inhibition): 0/0
HSV-1
  zone of antiviral activity (viral plaque inhibition): 3
HSV-2
  zone of antiviral activity (viral plaque inhibition): 2 (2 - 20-30 mm)

## Phyllanthostatin 3
[1]; 50 µg/ml
  HSV-1 virus yield: slight reduction in yields
[2]; Vero cells, 50 µg/ml
  HSV-2 virus yield: slight reduction in yields

## Phyllanthostatin I
[1]; listed as Phyllanthostatin
  ED90 McIntyre: 2.3743
[1]; listed as phyllanthostatin I
  ED90 McIntyre: 2.37
[1]; [9]
  HSV-1 virus yield: further reductions in all virus yields
[2]
  ED90 MS: 1.64 µg per ml
[2]; 1440 min
  ED90 MS: 1.164 µg per ml
[2]; Vero cells, 0.5 µg/ml
  HSV-2 virus yield: most susceptible virus to inhibition
[2]; Vero cells, higher drug concentrations (5 and 50 µg/ml) compared with 0.5
  HSV-2 virus yield: further reductions in all virus yields
[3]; [9]
  VSV virus yield: further reductions in all virus yields
Coxsackie A21; 5 µg/ml (below 5 µg per ml)
  coxsackie A21 virus yield: inhibitory for both viruses
Coxsackie A21; below 5 µg per ml (i.e., 0.5 or 1), study of b36
  coxsackie A21 virus yield: reduced titers of coxsackie A21
Coxsackie A21; [9]
  coxsackie A21 virus yield: further reductions in all virus yields
[4]; 5 µg per ml
  coxsackie B3 virus yield: inhibitory for both viruses
[4]; below 5 µg per ml (i.e., 0.5 or 1)
  coxsackie B3 virus yield: unaffected
[5]; 8.0 x 10^3 PFU in 0.1 ml
  mice survived (of 14): 10
[5]; [7]
  %S (percent survivors): 71%
  MDD (mean day of death): 11.8 days
[5]; 8.0 x 10^4 PFU in 0.1 ml
  mice survived (of 14): 4
[5]; [8]
  %S (percent survivors): 29%
  MDD (mean day of death): 7.4 days
[5]
  protection of mice from lethal genital HSV-2 infection, summary in words: protected mice from lethal infection when the virus inoculum was reduced
[5]; [10]
  MDD: the same as the saline and DMSO saline treated group
  mice survived: all of the animals succumed to infection
[5]; second study, 8.0 x 10^4 PFU in 0.1 ml, 1 mg/ml
  death of mice: 80%
[6]; 0.5 mg/ml, day 4
  mean titers compared with controls: nearly the same as that in the controls
[6]; 0.5 mg/ml, days 2 and 3
  mean virus titers less than placebo treated group: about 0.7 logs
[6]; 1 mg/ml, day 1
  mean titer less than the placebo: greater than 2 logs
[6]; 1 mg/ml, days 2 through 4
  mean virus titers lower than placebo treated controls: about 0.5 logs
[6]; [11]
  Mean virus titer in swabs of mice which shed virus: 2.69 log PFU/ml
  Nv/Nt, swabs with virus/total swabs: 9/10
[6]; [12]
  Mean virus titer in swabs of mice which shed virus: 1.67 log PFU/ml
  Nv/Nt, swabs with virus/total swabs: 4
[6]; day 1 after HSV-2 inoc., 1 mg/ml, listed as Phyllanostatin I
  Nv/Nt, swabs with virus/total swabs: 6/10
[6]; [13]
  Mean virus titer in swabs of mice which shed virus: 3.76 log PFU/ml
  Nv/Nt, swabs with virus/total swabs: 10/10
[6]; [14]
  Mean virus titer in swabs of mice which shed virus: 3.83 log PFU/ml
  Nv/Nt, swabs with virus/total swabs: 8/10
[6]; [15]
  Mean virus titer in swabs of mice which shed virus: 3.71 log PFU/ml
  Nv/Nt, swabs with virus/total swabs: 10/10
[6]; [16]
  Mean virus titer in swabs of mice which shed virus: 3.93 log PFU/ml
  Nv/Nt, swabs with virus/total swabs: 8/10
[6]; [17]
  Mean virus titer in swabs of mice which shed virus: 4.13 log PFU/ml
  Nv/Nt, swabs with virus/total swabs: 10/10
[6]; [18]
  Mean virus titer in swabs of mice which shed virus: 3.63 log PFU/ml
  Nv/Nt, swabs with virus/total swabs: 8/10
[6]; [19]
  Mean virus titer in swabs of mice which shed virus: (3.98) log PFU/ml
  Nv/Nt, swabs with virus/total swabs: 1/1
[6]; [20]
  Mean virus titer in swabs of mice which shed virus: 3.47 log PFU/ml
  Nv/Nt, swabs with virus/total swabs: 3/5
PR-8
  zone of cytotoxicity: 2/2 (2 - 20-30 mm)
  zone of antiviral activity (viral plaque inhibition): 2/2 (2 - 20-30 mm)
E.R.
  zone of cytotoxicity: 2 (2 - 20-30 mm)
  zone of antiviral activity (viral plaque inhibition): 4
Vacc.
  zone of cytotoxicity: 4/4
  zone of antiviral activity (viral plaque inhibition): 4/4
Coe
  zone of antiviral activity (viral plaque inhibition): 0
HA-1
  zone of cytotoxicity: 4
  zone of antiviral activity (viral plaque inhibition): 0
HSV-1
  zone of antiviral activity (viral plaque inhibition): 4/4
HSV-2
  zone of antiviral activity (viral plaque inhibition): 4/4
